Measured values: patent US9497970B2, “Pesticide compounds” (priority 2013, dated 2016)

Tests used:
Assay type in all cases: in vivo
[1] = test system: Diamond Back Moth (Plutella xylostella); experiment: B.1 Diamond Back Moth (Plutella xylostella), cabbage leaf dip; conditions: foliar, 500 ppm, 3rd instar larvae on dipped cabbage leaves, 72 hours after treatment, in comparison with untreated controls, read-out: mortality
Method: B.1 Diamond Back Moth (Plutella xylostella)
The active compound was dissolved at the desired concentration in a mixture of 1:1 (vol:vol) distilled water:aceteone. Surfactant (Kinetic HV) was added at a rate of 0.01% (vol/vol). The test solution was prepared at the day of use.
Leaves of cabbage were dipped in test solution and air-dried. Treated leaves were placed in petri dishes lined with moist filter paper and inoculated with ten 3rd instar larvae. Mortality was recorded 72 hours after treatment. Feeding damages were also recorded using a scale of 0-100%.

[2] = test system: Boll Weevil (Anthonomus grandis); experiment: B.3 Boll Weevil (Anthonomus grandis), microtiter plate insect diet; conditions: 120 h, 800 ppm, sprayed onto insect diet, 5 days, in comparison with untreated controls, read-out: mortality (egg and larval)
Method: B.3 Boll Weevil (Anthonomus grandis)
For evaluating control of boll weevil (Anthonomus grandis) the test unit consisted of 96-well-microtiter plates containing an insect diet and 5-10 A. grandis eggs.
(§1) The compounds were formulated using a solution containing 75% v/v water and 25% v/v DMSO. Different concentrations of formulated compounds were sprayed onto the insect diet at 5 μl, using a custom built micro atomizer, at two replications.
After application, microtiter plates were incubated at about 25±1° C. and about 75±5% relative humidity for 5 days. Egg and larval mortality was then visually assessed.

[3] = test system: Mediterranean Fruitfly (Ceratitis capitata); experiment: B.6 Mediterranean Fruitfly (Ceratitis capitata), microtiter plate insect diet; conditions: 120 h, 800 ppm, sprayed onto insect diet, 5 days, in comparison with untreated controls, read-out: mortality (egg and larval)
Method: B.6 Mediterranean Fruitfly (Ceratitis capitata)
For evaluating control of Mediterranean fruitfly (Ceratitis capitata) the test unit consisted of microtiter plates containing an insect diet and 50-80 C. capitata eggs.
as §1
(§2) After application, microtiter plates were incubated at about 28±1° C. and about 80±5% relative humidity for 5 days. Egg and larval mortality was then visually assessed.

[4] = test system: Tobacco Budworm (Heliothis virescens); experiment: B.7 Tobacco Budworm (Heliothis virescens) I, microtiter plate insect diet; conditions: 120 h, 800 ppm, sprayed onto insect diet, 5 days, in comparison with untreated controls, read-out: mortality (egg and larval)
Method: B.7 Tobacco Budworm (Heliothis virescens) I
For evaluating control of tobacco budworm (Heliothis virescens) the test unit consisted of 96-well-microtiter plates containing an insect diet and 15-25 H. virescens eggs. The compounds were formulated using a solution containing 75% v/v water and 25% v/v DMSO. Different concentrations of formulated compounds were sprayed onto the insect diet at 10 μl, using a custom built micro atomizer, at two replications.
as §2

[5] = test system: Yellow Fever Mosquito (Aedes aegypti); experiment: whole plant or invertebrate; conditions: 48 h, freshly hatched larvae in tap water, 2 days, in comparison with untreated controls, read-out: mortality (larval)
Method: B.11 Yellow Fever Mosquito (Aedes aegypti)
For evaluating control of yellow fever mosquito (Aedes aegypti) the test unit consisted of 96-well-microtiter plates containing 200 μl of tap water per well and 5-15 freshly hatched A. aegypti larvae.
The active compounds were formulated using a solution containing 75% (v/v) water and 25% (v/v) DMSO. Different concentrations of formulated compounds or mixtures were sprayed onto the insect diet at 2.5 μl, using a custom built micro atomizer, at two replications.

[6] = test system: Orchid thrips (dichromothrips corbetti); experiment: B.12 Orchid thrips (dichromothrips corbetti), floral-immersion technique; conditions: adult thrips on dipped orchid petals, 72 hours after treatment, in comparison with untreated controls
Method: B.12 Orchid thrips (dichromothrips corbetti)
Dichromothrips corbetti adults used for bioassay were obtained from a colony maintained continuously under laboratory conditions. For testing purposes, the test compound is diluted in a 1:1 mixture of acetone:water (vol:vol), plus Kinetic HV at a rate of 0.01% v/v.
Thrips potency of each compound was evaluated by using a floral-immersion technique. All petals of individual, intact orchid flowers were dipped into treatment solution and allowed to dry in Petri dishes. Treated petals were placed into individual resealable plastic along with about 20 adult thrips. All test arenas were held under continuous light and a temperature of about 28° C. for duration of the assay. After 3 days, the numbers of live thrips were counted on each petal. The percent mortality was recorded 72 hours after treatment.

[7] = test system: Southern Armyworm (Spodoptera eridania), 2nd Instar Larvae; experiment: B.10 Southern Armyworm (Spodoptera eridania), 2nd Instar Larvae, sprayed lima bean plants; conditions: 96 h, 300 ppm, larvae on sprayed lima bean plants, 4 days after treatment, in comparison with untreated controls, read-out: mortality
Method: B.10 Southern Armyworm (Spodoptera eridania), 2nd Instar Larvae
The active compounds were formulated by a Tecan liquid handler in 100% cyclohexanone as a 10,000 ppm solution supplied in tubes. The 10,000 ppm solution was serially diluted in 100% cyclohexanone to make interim solutions. These served as stock solutions for which final dilutions were made by the Tecan in 50% acetone:50% water (v/v) into 5 or 10 ml glass vials. A nonionic surfactant (Kinetic®) was included in the solution at a volume of 0.01% (v/v). The vials were then inserted into an automated electrostatic sprayer equipped with an atomizing nozzle for application to plants/insects.
Lima bean plants (variety Sieva) were grown 2 plants to a pot and selected for treatment at the 1st true leaf stage. Test solutions were sprayed onto the foliage by an automated electrostatic plant sprayer equipped with an atomizing spray nozzle. The plants were dried in the sprayer fume hood and then removed from the sprayer. Each pot was placed into perforated plastic bags with a zip closure. About 10 to 11 armyworm larvae were placed into the bag and the bags zipped closed. Test plants were maintained in a growth room at about 25° C. and about 20-40% relative humidity for 4 days, avoiding direct exposure to fluorescent light (24 hour photoperiod) to prevent trapping of heat inside the bags. Mortality and reduced feeding were assessed 4 days after treatment, compared to untreated control plants.

FC(F)(F)Oc1ccc(-n2cnc3c4ccc(/C=N/NC(=S)Nc5c(Cl)cccc5Cl)cc4ccc32)cc1 [C-37, 1-(2,6-dichlorophenyl)-3-[(E)-[3-[4-(trifluoromethoxy)phenyl]benzo[e]benzimidazol-7-yl]methyleneamino] thiourea]
≥ 75%: mortality at 500 ppm [1] | mortality at 800 ppm [2] | mortality at 800 ppm [3] | mortality at 800 ppm [4] | mortality at 800 ppm [5] | mortality at 500 ppm [6]

Cc1ccc(C)c(NC(=S)N/N=C/c2ccc3c(ccc4c3ncn4-c3ccc(OC(F)(F)F)cc3)c2)c1 [C-41, 1-(2,5-dimethylphenyl)-3-[(E)-[3-[4-(trifluoromethoxy)phenyl]benzo[e]benzimidazol-7-yl]methyleneamino] thiourea]
≥ 75%: mortality at 500 ppm [1] | mortality at 800 ppm [2] | mortality at 800 ppm [3] | mortality at 800 ppm [4] | mortality at 800 ppm [5] | mortality at 500 ppm [6]

Cc1cccc(C)c1NC(=S)N/N=C/c1ccc2c(c1)sc1c2ncn1-c1ccc(OC(F)(F)F)cc1 [C-47, 1-(2,6-dimethylphenyl)-3-[(E)-[3-[4-(trifluoromethoxy)phenyl]benzothiopheno[2,3-d]imidazol-6-yl]methyleneamino]thiourea]
≥ 75%: mortality at 500 ppm [1] | mortality at 800 ppm [2] | mortality at 800 ppm [3] | mortality at 800 ppm [4] | mortality at 800 ppm [5]

COc1cccc(C)c1NC(=S)N/N=C/c1ccc2c(ccc3c2ncn3-c2ccc(OC(F)(F)F)cc2)c1 [C-65, 1-(2-methoxy-6-methyl-phenyl)-3-[(E)-[3-[4-(trifluoromethoxy)phenyl]benzo[e]benzimidazol-7-yl]methyleneamino] thiourea]
≥ 75%: mortality at 500 ppm [1] | mortality at 800 ppm [2] | mortality at 800 ppm [3] | mortality at 800 ppm [4] | mortality at 800 ppm [5] | mortality at 500 ppm [6]

Fc1cccc(F)c1NC(=S)N/N=C/c1ccc2c(ccc3c2ncn3-c2ccc(OC(F)(F)F)cc2)c1 [C-71, 1-(2,6-difluorophenyl)-3-[(E)-[3-[4-(trifluoromethoxy)phenyl]benzo[e]benzimidazol-7-yl]methyleneamino] thiourea]
≥ 75%: mortality at 800 ppm [2] | mortality at 800 ppm [3] | mortality at 800 ppm [4] | mortality at 300 ppm [7]

Cc1cccc(C)c1NC(=S)N/N=C/c1ccc2c(ccc3c(-c4ccc(OC(F)(F)F)cc4)snc32)c1 [C-88, 1-(2,6-dimethylphenyl)-3-[(E)-[3-[4-(trifluoromethoxy)phenyl]benzo[g][2,1]benzothiazol-7-yl]methyleneamino] thiourea]
≥ 75%: mortality at 800 ppm [4] | mortality at 800 ppm [5]

CCc1cccc(CC)c1NC(=S)N/N=C/c1ccc2c(ccc3c(-c4ccc(OC(F)(F)F)cc4)n(C)nc32)c1 [C-93, 1-(2,6-diethylphenyl)-3-[(E)-[2-methyl-3-[4-(trifluoromethoxy)phenyl]benzo [g]indazol-7-yl]methyleneamino] thiourea]
≥ 75%: mortality at 500 ppm [1] | mortality at 800 ppm [2] | mortality at 800 ppm [4] | mortality at 800 ppm [5] | mortality at 500 ppm [6]

Cc1cccc(C)c1NC(=S)N/N=C/c1ccc2c(c1)CCC1C2=NN(C)C1c1ccc(OC(F)(F)F)cc1 (centres unmarked) [C-94, 1-(2,6-dimethylphenyl)-3-[(E)-[2-methyl-3-[4-(trifluoromethoxy)phenyl]-3,3a,4,5-tetrahydrobenzo[g]indazol-7-yl]methyleneamino]thiourea]
≥ 75%: mortality at 500 ppm [1] | mortality at 800 ppm [2] | mortality at 800 ppm [4] | mortality at 800 ppm [5] | mortality at 500 ppm [6]

Cc1cccc(C)c1NC(=S)N/N=C/c1ccc2c(ccc3c(-c4ccc(OC(F)(F)F)cc4)n(C)nc32)c1 [C-96, 1-(2,6-dimethylphenyl)-3-[(E)-[2-methyl-3-[4-(trifluoromethoxy)phenyl]benzo[g]indazol-7-yl]methyleneamino] thiourea]
≥ 75%: mortality at 500 ppm [1] | mortality at 800 ppm [2] | mortality at 800 ppm [3] | mortality at 800 ppm [4] | mortality at 800 ppm [5] | mortality at 500 ppm [6]

COc1cccc(C)c1NC(=S)N/N=C/c1ccc2c(ccc3c(-c4ccc(OC(F)(F)F)cc4)n(C)nc32)c1 [C-97, 1-(2-methoxy-6-methyl-phenyl)-3-[(E)-[2-methyl-3-[4-(trifluoromethoxy)phenyl]benzo[g]indazol-7-yl]methyleneamino]thiourea]
≥ 75%: mortality at 500 ppm [1] | mortality at 800 ppm [2] | mortality at 800 ppm [3] | mortality at 800 ppm [4] | mortality at 800 ppm [5]

Cc1cccc(C)c1NC(=S)N/N=C/c1ccc2c(ccc3c2ncn3-c2ncc(C(F)(F)F)cc2Cl)c1 [C-112, 1-[[3-[3-chloro-5-(trifluoromethyl)-2-pyridyl]-3aH-benzo[e]benzimidazol-7-ylidene]methylimino]-3-(2,6-dimethylphenyl)thiourea]
≥ 75%: mortality at 800 ppm [2] | mortality at 800 ppm [3] | mortality at 800 ppm [4] | mortality at 800 ppm [5]

CC(C)c1ccccc1N1C(=O)CS/C1=N\C(=O)Nc1ccc2c(ccc3c2ncn3-c2ccc(OC(F)(F)F)cc2)c1 [C-115, (1Z)-1-[3-(2-isopropylphenyl)-4-oxo-thiazolidin-2-ylidene]-3-[3-[4(trifluoromethoxy)phenyl]benzo[e]benzimidazol-7-yl]urea]
≥ 75%: mortality at 800 ppm [2] | mortality at 800 ppm [3] | mortality at 800 ppm [4] | mortality at 800 ppm [5]

CC(C)c1ccccc1N/C(S)=N/C(=O)Nc1ccc2c(ccc3c2ncn3-c2ccc(OC(F)(F)F)cc2)c1 [C-117, (1Z)-1-[(2-isopropylanilino)-sulfanyl-methylene]-3-[3-[4-(trifluoromethoxy)phenyl]benzo[e]benzimidazol-7-yl]urea]
≥ 75%: mortality at 800 ppm [2] | mortality at 800 ppm [3] | mortality at 800 ppm [4] | mortality at 800 ppm [5]
